The source of these data is patent US8580786B2, “Triazine derivatives and their therapeutical applications” (Nant Holdings IP, LLC, priority 2006, dated 2013).

The structures appear in SMILES notation.

This test relates to MX-1 (human breast carcinoma) cells. Put plainly: Cytotoxicity assay (Promega CellTiter Blue Cell Viability Assay), in vitro growth inhibition. The test is classed as cell-based. The conditions noted are these: MX1, MX-1 cells, 72 hrs exposure to compound, CellTiter Blue fluorescence readout, read-out: IC50 (μM), cytotoxicity of triazine derivatives. On the procedure: A cytotoxicity assay was quantitated using the Promega CellTiter Blue Cell Viability Assay. Briefly, cells (5000 cells/well) were plated onto 96-well microtiter plates in RPMI 1640 medium supplemented with 10% FBS and incubated at 37° C. in a humidified 5% CO2 atmosphere. After 24 hrs., cells were exposed to various concentrations of compound in DMSO and cultured for another 72 hrs. 100 ul of media were removed and 20 ul of Promega CellTiter Blue reagent were added to each well and shaken to mix. After 4 hours of incubation at 37° C. in a humidified 5% CO2 atmosphere, the plates were read at 544 ex/620 em. The fluorescence produced is proportional to the number of viable cells. After plotting fluorescence produced against drug concentration, the IC50 was calculated as the […] of the resulting non-linear regression.
Regarding `Cc1cccc(Cl)c1NC(=O)c1cnc(Nc2nc(Cl)nc(N3CCN(CCO)CC3)n2)s1` [Compound 13], the IC50 is 171 µM.

As to `Cc1nc(Nc2ncc(C(=O)Nc3c(C)cccc3Cl)s2)nc(N2CCN(CCO)CC2)n1` [Compound 5], the IC50 was 16 µM. With `Cc1nc(Nc2ccc(Oc3ccc(Cl)cc3)cc2)nc(N2CCN(c3ccncc3)CC2)n1` [Compound 11] the figure was 1.4 µM; with `Cc1cccc(Cl)c1NC(=O)c1cnc(Nc2nc(Cl)nc(Nc3cnc(C(=O)Nc4c(C)cccc4Cl)s3)n2)s1` [Compound 12], 237 µM. With `Cc1nc(Nc2ncc(C(=O)Nc3c(C)cccc3Cl)s2)nc(N2CCN(C)CC2)n1` [Compound 7] the figure was 38.7 µM; with `Cc1nc(Nc2ncc(C(=O)Nc3c(C)cccc3Cl)s2)nc(N2CCN(c3ccncc3)CC2)n1` [Compound 6], 2.6 µM. With `Cc1cccc(Cl)c1NC(=O)c1cnc(Nc2nc(N3CCN(c4ccncc4)CC3)nc(N3CCN(c4ccncc4)CC3)n2)s1` [Compound 14] the figure was 131 µM. Take `Cc1nc(Cl)nc(Nc2ccc(Oc3ccc(Cl)cc3)cc2)n1` [Compound 9]: the IC50 stood at 19.1 µM. With `Cc1nc(Nc2ncc(C(=O)Nc3c(C)cccc3Cl)s2)nc(N2CCOCC2)n1` [Compound 8] the figure was 58.1 µM; with `Cc1nc(Nc2ccc(Oc3ccc(Cl)cc3)cc2)nc(N2CCN(CCO)CC2)n1` [Compound 10], 14.1 µM; with `Cc1nc(Cl)nc(Nc2ncc(C(=O)Nc3c(C)cccc3Cl)s2)n1` [Compound 4], 12.2 µM.

The IC50 is the point on the concentration scale where inhibition reaches its midpoint.
